Test results reported in ChEMBL document CHEMBL1147084, “From the Cover: Antipsychotic drug-induced weight gain mediated by histamine H1 receptor-linked activation of hypothalamic AMP-kinase” (Proc Natl Acad Sci U S A, 2007).
The source made the active and inactive calls. The rule behind the calls is not given here.

Legend:
Hypothalamus = assay: Increase in phospho-AMPK levels in H1RKO mouse hyphalamic slices at 500 nM after 30 mins by Western blotting; assay type: functional, tissue-based
Mus musculus [1] = species: Mus musculus; assay: Orexigenic activity in H1RKO mouse; assay type: functional, organism-based
Mus musculus [2] = assay: Increase in phospho-AMPK level in paraventricular hyphalamic nuclei intact H1RKO mouse at 3 mg/kg, ip after 3 hrs by immunohistochemistry; assay type: functional, organism-based; set-up: dose 3 mg/kg
Mus musculus [3] = assay: Increase in phospho-AMPK levels in intact H1RKO mouse hypothalamus at 3 mg/kg, ip after 3 hrs by Western blotting; assay type: functional, organism-based; set-up: dose 3 mg/kg
Histamine H1 receptor = Histamine H1 receptor (Rattus norvegicus, UniProt P31390); assay: biochemical
Description: Displacement of [3H]mepyramine from H1R in rat brain

[4] = target: T1, Leptin receptor (Homo sapiens) (UniProt P48357); assay: Binding affinity to leptin receptor at 10 nM
T1 sequence (whole entry): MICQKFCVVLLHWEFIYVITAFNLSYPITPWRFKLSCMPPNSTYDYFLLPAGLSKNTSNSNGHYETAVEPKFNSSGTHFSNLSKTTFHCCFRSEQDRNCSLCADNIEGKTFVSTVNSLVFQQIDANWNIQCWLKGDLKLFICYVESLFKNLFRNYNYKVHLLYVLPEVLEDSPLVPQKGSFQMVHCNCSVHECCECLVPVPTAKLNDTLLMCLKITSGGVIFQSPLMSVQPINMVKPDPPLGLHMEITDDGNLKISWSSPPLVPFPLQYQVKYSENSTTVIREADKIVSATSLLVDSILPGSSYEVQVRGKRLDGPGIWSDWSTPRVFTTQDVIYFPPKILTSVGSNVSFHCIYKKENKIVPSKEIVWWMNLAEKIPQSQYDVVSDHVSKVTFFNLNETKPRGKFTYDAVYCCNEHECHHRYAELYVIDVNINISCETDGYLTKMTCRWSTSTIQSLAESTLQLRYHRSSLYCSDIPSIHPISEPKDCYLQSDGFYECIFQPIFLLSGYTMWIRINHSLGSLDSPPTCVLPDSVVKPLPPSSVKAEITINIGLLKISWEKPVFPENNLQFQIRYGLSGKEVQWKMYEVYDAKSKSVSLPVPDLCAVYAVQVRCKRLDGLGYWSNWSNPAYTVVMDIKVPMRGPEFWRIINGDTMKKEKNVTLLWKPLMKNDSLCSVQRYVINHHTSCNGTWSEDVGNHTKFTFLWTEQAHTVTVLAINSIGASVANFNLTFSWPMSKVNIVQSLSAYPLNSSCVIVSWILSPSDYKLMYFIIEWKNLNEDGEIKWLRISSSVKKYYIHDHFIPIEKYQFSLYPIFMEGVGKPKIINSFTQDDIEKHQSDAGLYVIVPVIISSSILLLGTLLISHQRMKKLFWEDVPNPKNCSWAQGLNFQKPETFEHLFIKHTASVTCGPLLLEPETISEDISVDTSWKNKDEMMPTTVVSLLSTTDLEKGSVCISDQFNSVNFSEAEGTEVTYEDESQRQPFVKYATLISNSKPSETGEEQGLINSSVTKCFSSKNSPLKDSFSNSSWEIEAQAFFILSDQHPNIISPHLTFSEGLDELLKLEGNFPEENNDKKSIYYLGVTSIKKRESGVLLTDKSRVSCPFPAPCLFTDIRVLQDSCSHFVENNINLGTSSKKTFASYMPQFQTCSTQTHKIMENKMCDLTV

[5] = target: T1, Leptin receptor (Homo sapiens); assay: Binding affinity to leptin receptor at 100 nM
[6] = Binding affinity to alphaMSH receptor at 10 nM
[7] = Binding affinity to alphaMSH receptor at 100 nM
[8] = target: T2, Neuropeptide Y receptor type 1 (Homo sapiens) (UniProt P25929); assay: Binding affinity to neuropeptide Y receptor at 10 nM
T2 sequence (whole entry): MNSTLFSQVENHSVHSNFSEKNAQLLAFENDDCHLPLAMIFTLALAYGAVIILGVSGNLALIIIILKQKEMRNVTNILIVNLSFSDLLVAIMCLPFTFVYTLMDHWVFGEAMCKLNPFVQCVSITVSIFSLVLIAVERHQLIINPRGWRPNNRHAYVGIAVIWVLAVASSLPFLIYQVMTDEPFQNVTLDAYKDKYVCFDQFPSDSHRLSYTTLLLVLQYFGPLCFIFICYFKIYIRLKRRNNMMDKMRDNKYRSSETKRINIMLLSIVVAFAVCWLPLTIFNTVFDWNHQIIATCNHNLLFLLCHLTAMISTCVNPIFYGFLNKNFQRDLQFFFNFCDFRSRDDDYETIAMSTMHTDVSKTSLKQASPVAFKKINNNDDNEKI

[9] = target: T2, Neuropeptide Y receptor type 1 (Homo sapiens); assay: Binding affinity to neuropeptide Y receptor at 100 nM
Mus musculus [10] = assay: Increase in alpha-2AMPK levels in intact H1RKO mouse cerebellum at 1 mg/kg after 3 hrs; assay type: functional, organism-based; set-up: dose 1 mg/kg
Mus musculus [11] = species: Mus musculus; assay: Reversal of leptin-induced reduction in hyphalamic phospho-AMPK level in H1RKO mouse at 50 nM after 30 mins by Western blotting; assay type: functional, organism-based
Mus musculus [12] = species: Mus musculus; assay: Reversal of insulin-induced reduction in hyphalamic phospho-AMPK level in H1RKO mouse at 50 nM after 30 mins by Western blotting; assay type: functional, organism-based
Mus musculus [13] = species: Mus musculus; assay: Reversal of histamine-induced reduction in hyphalamic phospho-AMPK level in H1RKO mouse at 200 nM after 30 mins by Western blotting; assay type: functional, organism-based
Mus musculus [14] = assay: Increase in phospho-AMPK in H1R knockout mouse at 3 mg/kg by immunohistochemistry; assay type: functional, organism-based; set-up: dose 3 mg/kg
Mus musculus [15] = assay: Increase in alpha-2AMPK levels in intact H1RKO mouse cerebral cortex at 1 mg/kg after 3 hrs; assay type: functional, organism-based; set-up: dose 1 mg/kg
Mus musculus [16] = assay: Increase in phospho-AMPK level in arcuate hyphalamic nuclei intact H1RKO mouse at 1 mg/kg after 3 hrs by immunohistochemistry; assay type: functional, organism-based; set-up: dose 1 mg/kg
Mus musculus [17] = assay: Increase in phospho-AMPK level in arcuate hyphalamic nuclei intact H1RKO mouse at 5 mg/kg after 3 hrs by immunohistochemistry; assay type: functional, organism-based; set-up: dose 5 mg/kg
Mus musculus [18] = assay: Increase in phospho-AMPK levels in intact H1RKO mouse hypothalamus at 1 mg/kg after 3 hrs; assay type: functional, organism-based; set-up: dose 1 mg/kg
Mus musculus [19] = assay: Increase in alpha-2AMPK levels in intact H1RKO mouse hypothalamus at 1 mg/kg after 3 hrs; assay type: functional, organism-based; set-up: dose 1 mg/kg
Mus musculus [20] = assay: Increase in phospho-AMPK levels in intact H1RKO mouse cerebellum at 1 mg/kg, ip after 3 hrs by Western blotting; assay type: functional, organism-based; set-up: dose 1 mg/kg
Mus musculus [21] = assay: Increase in phospho-AMPK levels in intact H1RKO mouse liver at 1 mg/kg, ip after 3 hrs by Western blotting; assay type: functional, organism-based; set-up: dose 1 mg/kg
Mus musculus [22] = assay: Increase in cortical alpha-2AMPK levels in intact H1RKO mouse at 5 mg/kg after 3 hrs; assay type: functional
Mus musculus [23] = assay: Increase in alpha-2AMPK levels in intact H1RKO mouse cerebellum at 5 mg/kg after 3 hrs; assay type: functional, organism-based; set-up: dose 5 mg/kg
Mus musculus [24] = assay: Reversal of leptin-induced reduction in hyphalamic phospho-AMPK in H1RKO mouse at 5 mg/kg after 3 hrs by Western blotting; assay type: functional, organism-based; set-up: dose 5 mg/kg
Mus musculus [25] = assay: Reversal of leptin-induced reduction in hyphalamic alpha-2AMPK activity in H1RKO mouse at 5 mg/kg; assay type: functional, organism-based; set-up: dose 5 mg/kg
Mus musculus [26] = assay: Increase in phospho-AMPK level in paraventricular hyphalamic nuclei intact H1RKO mouse at 1 mg/kg after 3 hrs by immunohistochemistry; assay type: functional, organism-based; set-up: dose 1 mg/kg
Mus musculus [27] = assay: Increase in phospho-AMPK level in paraventricular hyphalamic nuclei intact H1RKO mouse at 5 mg/kg after 3 hrs by immunohistochemistry; assay type: functional, organism-based; set-up: dose 5 mg/kg

Sequence of Histamine H1 receptor (P31390 whole entry): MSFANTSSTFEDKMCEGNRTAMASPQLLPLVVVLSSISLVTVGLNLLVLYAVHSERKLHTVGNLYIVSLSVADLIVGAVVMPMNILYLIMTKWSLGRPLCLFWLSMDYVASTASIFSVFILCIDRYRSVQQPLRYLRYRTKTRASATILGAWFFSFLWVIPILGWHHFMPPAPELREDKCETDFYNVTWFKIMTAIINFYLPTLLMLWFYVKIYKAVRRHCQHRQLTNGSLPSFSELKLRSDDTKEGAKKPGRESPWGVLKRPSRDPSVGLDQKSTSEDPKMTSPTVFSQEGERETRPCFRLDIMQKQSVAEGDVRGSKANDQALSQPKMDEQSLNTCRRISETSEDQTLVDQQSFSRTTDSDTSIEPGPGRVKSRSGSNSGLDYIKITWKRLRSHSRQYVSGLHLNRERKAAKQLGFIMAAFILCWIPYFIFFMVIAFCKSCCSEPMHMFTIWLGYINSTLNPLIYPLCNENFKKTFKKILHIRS

Which Activity (Hypothalamus) does the source give for `O=C1Cc2cc(CCN3CCN(c4nsc5ccccc45)CC3)c(Cl)cc2N1` here?
The Activity was “inactive”.

What about the Activity (Mus musculus [1]) of the same compound?
The Activity was “inactive”.

And the Activity (Mus musculus [2])?
Its Activity is “inactive”.

Which Activity (Hypothalamus) does the source give for `OCCOCCN1CCN(C2=Nc3ccccc3Sc3ccccc32)CC1` here?
Its Activity is “Active”.

What about the Activity (Mus musculus [1]) of the same compound?
Its Activity is “Active”.

Which results are given for `Cc1ccc(/C(=C\CN2CCCC2)c2ccccn2)cc1`?
Activity (Mus musculus [3]): Active; Activity (Hypothalamus): Active

For `Cc1nc2n(c(=O)c1CCN1CCC(c3noc4cc(F)ccc34)CC1)CCCC2`, which Activity (Hypothalamus) is on record?
Its Activity is “inactive”.

With `O=C(CCCN1CCC(O)(c2ccc(Cl)cc2)CC1)c1ccc(F)cc1` as the compound, how does the Activity (Hypothalamus) read?
The Activity was “inactive”.

What about the Activity (Mus musculus [1]) of the same compound?
The Activity was “inactive”.

With `O=C1CCc2ccc(OCCCCN3CCN(c4cccc(Cl)c4Cl)CC3)cc2N1` [ARIPIPRAZOLE] as the compound, how does the Activity (Hypothalamus) read?
Its Activity is “inactive”.

What about the Activity (Mus musculus [1]) of the same compound?
Its Activity is “inactive”.

What about the IC50 (Histamine H1 receptor) of the same compound?
The IC50 was over 3 µM.

With `Cc1cc2c(s1)Nc1ccccc1N=C2N1CCN(C)CC1` as the compound, how does the Activity (Hypothalamus) read?
The Activity was “Active”.

What about the Activity (Mus musculus [1]) of the same compound?
The Activity was “Active”.

What about the Activity [4] of the same compound?
The Activity was “inactive”.

What about the Activity [5] of the same compound?
Its Activity is “inactive”.

What about the Activity [6] of the same compound?
Its Activity is “inactive”.

What about the Activity [7] of the same compound?
The Activity was “inactive”.

And the Activity [8]?
Its Activity is “inactive”.

And the Activity [9]?
The Activity was “inactive”.

With `CN1CCN(C2=Nc3cc(Cl)ccc3Nc3ccccc32)CC1` [CLOZAPINE] as the compound, how does the Activity (Mus musculus [10]) read?
The Activity was “inactive”.

And the Activity (Mus musculus [11])?
Its Activity is “Active”.

What about the Activity (Mus musculus [12]) of the same compound?
Its Activity is “Active”.

And the Activity (Mus musculus [13])?
Its Activity is “Active”.

And the Activity (Mus musculus [14])?
Its Activity is “inactive”.

What about the Activity (Mus musculus [15]) of the same compound?
Its Activity is “inactive”.

What about the Activity (Mus musculus [16]) of the same compound?
Its Activity is “Active”.

What about the Activity (Mus musculus [17]) of the same compound?
The Activity was “Active”.

And the Activity (Hypothalamus)?
Its Activity is “Active”.

What about the Activity (Mus musculus [1]) of the same compound?
Its Activity is “Active”.

And the Activity (Mus musculus [18])?
Its Activity is “Active”.

What about the Activity (Mus musculus [19]) of the same compound?
Its Activity is “Active”.

What about the Activity (Mus musculus [20]) of the same compound?
Its Activity is “inactive”.

And the Activity (Mus musculus [21])?
Its Activity is “inactive”.

What about the Activity (Mus musculus [22]) of the same compound?
The Activity was 20%.

And the Activity (Mus musculus [23])?
The Activity was “inactive”.

What about the Activity (Mus musculus [24]) of the same compound?
The Activity was “Active”.

What about the Activity (Mus musculus [25]) of the same compound?
The Activity was “Active”.

What about the Activity (Mus musculus [26]) of the same compound?
The Activity was “Active”.

And the Activity (Mus musculus [27])?
Its Activity is “Active”.

And the Activity [4]?
Its Activity is “inactive”.

What about the Activity [5] of the same compound?
Its Activity is “inactive”.

And the Activity [6]?
The Activity was “inactive”.

And the Activity [7]?
The Activity was “inactive”.

What about the Activity [8] of the same compound?
Its Activity is “inactive”.

And the Activity [9]?
The Activity was “inactive”.
